Source: PubChem BioAssay AID1406 (The Scripps Research Institute Molecular Screening Center, 2008)
The source made the active and inactive calls.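 How the source made its calls: active means STAT1 reporter activators whose half-maximal activating concentration EC50 is 10 µM or lower; inactive means EC50 above 10 µM or no activation.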

Tested on: NIH 3T3 STAT1 luciferase reporter, luminescence
Assay: STAT1 transcription enhancement, IFN-gamma induced – cell-based, NIH 3T3, luciferase luminescence, counter-screen for STAT3 activator project, dose response (AID 1406)
Conditions: cells stimulated with IFN-gamma at EC80

Compound | EC50
Cc1cc(-c2ccc(Cl)cc2)c(C#N)c(N)n1 | > 55.7 µM (inactive)
COc1ccc(Br)cc1C(=O)Nc1cccc(C)c1 | > 55.7 µM (inactive)
O=C(Cc1c[nH]c2ccccc12)Nc1nc2ccccc2[nH]1 | > 55.7 µM (inactive)
O=C(CCc1nnc(Cc2ccc3c(c2)OCO3)o1)NCc1nc2ccccc2s1 | > 55.7 µM (inactive)
COc1ccc(C2c3[nH]c4ccccc4c3CCN2C(=O)c2ccc(=O)n(C)n2)c(F)c1 (stereo unspecified) | > 55.7 µM (inactive)
Cc1nnc(NC(=O)c2oc3c(ccc4ccccc43)c2C)s1 | > 55.7 µM (inactive)
Cc1nc2ccccc2cc1O | > 55.7 µM (inactive)
Cc1nc2c(n1C1CCCCC1)C(=O)c1ccccc1C2=O | > 55.7 µM (inactive)
O=C(CCN1CCOCC1)N1CCc2c([nH]c3ccccc23)C1c1cccc(Cl)c1 (stereo unspecified) | > 55.7 µM (inactive)
O=C(O)C1CC=CCC1C(=O)Nc1ccc(S(=O)(=O)N2CCCc3ccccc32)cc1 (stereo unspecified) | > 55.7 µM (inactive)
COCCCNC(=O)c1cc2c(-c3ccc(Cl)cc3)nn(C)c2s1 | > 55.7 µM (inactive)
COCCNC(=O)c1cc2c(-c3ccc(Cl)cc3)nn(C)c2s1 | > 55.7 µM (inactive)
CC1Cc2ccccc2N1Cc1cc(=O)n2ccsc2n1 (stereo unspecified) | > 55.7 µM (inactive)
O=C(Cc1cccs1)Nc1ccccn1 | > 55.7 µM (inactive)
COc1ccc(S(=O)(=O)Nc2nc3ccccc3s2)cc1OC | > 55.7 µM (inactive)
COC(=O)NNC(=O)c1ccccc1OC | > 55.7 µM (inactive)
CCN(CC)S(=O)(=O)c1ccc(-c2nnc3sc4cccc(C)c4n23)cc1 | > 55.7 µM (inactive)
CCOc1ccccc1C1CC(c2cccs2)=NN1S(C)(=O)=O (stereo unspecified) | > 55.7 µM (inactive)
CN1C(=O)/C(=C\c2cc(Br)cs2)c2ccccc21 | > 55.7 µM (inactive)
Nc1nnc(Cc2c[nH]c3ccccc23)s1 | > 55.7 µM (inactive)
COc1cccc2sc(Nc3nnc(-c4ccc(F)cc4)o3)nc12 | > 55.7 µM (inactive)
COc1ccc(CN2CCN(S(=O)(=O)c3ccc(C)cc3)CC2)cc1Br | > 55.7 µM (inactive)
Cc1nonc1CC(=O)N1CCc2c([nH]c3ccccc23)C1c1ccccc1F (stereo unspecified) | > 55.7 µM (inactive)

Compound | EC50
CC1CCN(C(=O)Cn2c(=O)n(CCc3ccccc3)c(=O)c3ccccc32)CC1 | > 55.7 µM (inactive)
CCC(CC)NC(=O)Cc1ccccc1[N+](=O)[O-] | > 55.7 µM (inactive)
Cc1nc(/N=C(\N)Nc2ccccc2)nc2ccccc12 | > 55.7 µM (inactive)
COCc1cc(C)nc2sc(C(=O)NN)c(-n3cccc3)c12 | > 55.7 µM (inactive)
Cn1nc(-c2ccc(Cl)cc2)c2cc(C(=O)NCCN3CCOCC3)sc21 | > 55.7 µM (inactive)
CN1C(=O)c2ccccc2C(C(=O)NCCCN2CCCC2=O)C1c1c[nH]c2ccccc12 (stereo unspecified) | > 55.7 µM (inactive)
CCC(C(=O)Nc1ccccc1OC)n1c(C(=O)OC)cc2ccsc21 (stereo unspecified) | > 55.7 µM (inactive)
Cc1c(C#N)c2ccccc2n1CC(=O)O | > 55.7 µM (inactive)
Cn1c(CNc2ccccc2O)nc2ccccc21 | > 55.7 µM (inactive)
COc1cc(NC(=O)c2cc(C(C)C)on2)c(OC)cc1Cl | > 55.7 µM (inactive)
COC(=O)c1sccc1NC(=O)c1ccc(Br)s1 | > 55.7 µM (inactive)
CN(Cc1ccccc1)Cc1c[nH]c2ccccc12 | > 55.7 µM (inactive)
NC(=O)CSc1c[nH]c2ccccc12 | > 55.7 µM (inactive)
O=C(Cc1c[nH]c2ccccc12)Nc1nnc(C2CC2)s1 | > 55.7 µM (inactive)
CC(C)CC1c2[nH]c3ccccc3c2CCN1C(=O)CCC(=O)N(C)C (stereo unspecified) | > 55.7 µM (inactive)
CCCc1cc(C(=O)Nc2cc(OC)c(Cl)cc2OC)no1 | > 55.7 µM (inactive)
Nc1ccccc1Sc1nc2ccccc2[nH]1 | > 55.7 µM (inactive)
COc1cccc(-c2nc(N3CCCCC3C)c3ccccc3n2)c1O (stereo unspecified) | > 55.7 µM (inactive)
Cn1nc(-c2ccc(Cl)cc2)c2cc(C(=O)NCCCN3CCOCC3)sc21 | > 55.7 µM (inactive)
COCc1cc(=O)n2c(-c3ccccc3OC)n[nH]c2n1 | > 55.7 µM (inactive)
O=C(Nc1ccccc1O)c1csc2c1CCCC2 | > 55.7 µM (inactive)
O=C(c1cc[n+]([O-])cc1)N1CCc2c([nH]c3ccccc23)C1c1ccccc1Cl (stereo unspecified) | > 55.7 µM (inactive)
COc1ccc(-c2nc3scc(-c4ccccc4)n3n2)cc1 | > 55.7 µM (inactive)
